From PMC8451604, “Rational formulation engineering of fraxinellone utilizing 6-O-α-D-maltosyl-β-cyclodextrin for enhanced oral bioavailability and hepatic fibrosis therapy” (Drug Delivery, 2021)

Tests used:
[1] = Blood biochemical assay (hematological parameters); assay type: in vivo, Kunming male mice; conditions: mice
Experimental: (§1) The Kunming male mice (weight of 28–30 g) were divided into 10 groups (n = 10): normal group, Frax or G2-β-CD-Frax treatment groups with a Frax dose of 5, 10, and 20 mg/kg, respectively, G2-β-CD solution treatment (equivalent to 20 mg/kg of G2-β-CD-Frax) group. Drug treatment continued every day for 7 weeks. One day after the last administration, blood and major tissues (heart, liver, spleen, lung, and kidney) were obtained from the blank group and drug-treated groups (20 mg/kg) for histological examination. The whole blood was directly analyzed using an automatic blood cell analyzer to obtain hematological parameters. The collected tissues were subjected to histological examination.

[2] = Phase solubility study of Frax with CDs; assay type: physicochemical; conditions: 37 °C, from phase solubility curves
Experimental: Frax was excessively mixed with increasing molar concentrations (0–350.00 mM) of each CD aqueous solution. […] The samples were subjected to HPLC analysis after centrifugation (4024.8 g, 10 min). Phase solubility profiles were plotted by monitoring Frax concentration as a function of the molar concentration of each CD. Based on the phase solubility curves, we calculated the apparent stability constants (Kc, L/mol) according to Equation (1): (1) Kc=Slope/S0(1−Slope) where S0 is the water solubility of Frax at equilibrium.

Caco-2 cells = assay: Cytotoxicity in Caco-2 cells (MTT assay); assay type: cell-based; conditions: 4 h
Experimental: (§2) Cytotoxicity effects and cellular uptake ability of Frax, CDs, and CDs-Frax complexes were examined using Caco-2 cells. […] Each CD solution was also used to determine whether the cell toxicity was caused by Frax or CDs. For cellular uptake studies, Caco-2 cells were treated with Frax and CDs-Frax (100 μg/mL) for 0.5, 1, and 2 h, respectively. For P-gp inhibition evaluation, the cells were pretreated with verapamil at a concentration of 100 μg/mL and further treated with each drug or formulation. Thereafter, the cells were washed and replenished with fresh PBS (300 μL). The cell lysate was prepared by three cycles of freeze-thaw. Protein concentration in the samples was quantified by the BCA kit while the Frax concentration was determined by HPLC.

[3] = Safety evaluation for seven weeks, histological examination (H&E); assay type: in vivo, Kunming male mice; conditions: mice, oral daily for 7 weeks, 20 mg/kg or equivalent G2-β-CD
Experimental: as §1

[4] = Cytotoxicity in Caco-2 cells (MTT assay); assay type: cell-based; conditions: human, Caco-2 cells; Caco-2, 300 μg/mL, 4 h; read-out: cell viability (cells remained viable)
Experimental: as §2

[5] = 7 weeks, colchicine group (0.2 mg/kg), in % (unit assumed)
[6] = 7 weeks, colchicine group (0.2 mg/kg), in fL (unit assumed)

Compound: COc1cc2c(c(OC)c1OC)-c1ccc(OC)c(=O)cc1[C@@H](NC(C)=O)CC2 [Colchicine, colchicine, reference compound]
- MCHC (mean corpuscular hemoglobin concentration) ([1]; 7 weeks): 341.86 ± 9.91
- PDW (platelet distribution width) ([1]; 7 weeks): 14.99 ± 0.22
- PLT (platelet) ([1]; 7 weeks, colchicine group (0.2 mg/kg), in 10^9/L (unit assumed)): 1363.86 ± 333.63
- HCT (haematocrit) [1, 5]: 39.06 ± 2.62
- RDW-CV (red cell volume distribution width) [1, 5]: 16.24 ± 1.60
- MCV (mean cell volume) [1, 6]: 43.09 ± 2.97
- MPV (meanplateletvolume) [1, 6]: 6.80 ± 0.51
- RDW-SD [1, 6]: 29.86 ± 4.02
- HGB (hemoglobin) ([1]; 7 weeks, colchicine group (0.2 mg/kg), in g/L (unit assumed)): 133.57 ± 9.50
- MCH (mean corpuscular hemoglobin) ([1]; 7 weeks, colchicine group (0.2 mg/kg), in pg (unit assumed)): 14.71 ± 0.70
- WBC (white blood cell) ([1]; 7 weeks, in 10^9/L (unit assumed)): 9.61 ± 4.41
- RBC (red blood cell) ([1]; 7 weeks, in 10^12/L (unit assumed)): 9.13 ± 1.01

Compound: OC[C@H]1O[C@H](O[C@H]2[C@H](O)[C@@H](O)[C@@H](OC[C@H]3O[C@@H]4O[C@H]5[C@H](O)[C@@H](O)[C@@H](O[C@H]6[C@H](O)[C@@H](O)[C@@H](O[C@H]7[C@H](O)[C@@H](O)C(O[C@H]8[C@H](O)[C@@H](O)[C@@H](O[C@H]9[C@H](O)[C@@H](O)[C@@H](O[C@H]%10[C@H](O)[C@@H](O)[C@@H](O[C@H]3[C@H](O)[C@H]4O)O[C@@H]%10CO)O[C@@H]9CO)O[C@@H]8CO)O[C@@H]7CO)O[C@@H]6CO)O[C@@H]5CO)O[C@@H]2CO)[C@H](O)[C@@H](O)[C@@H]1O [G2-β-CD, 6-O-α-D-maltosyl-β-cyclodextrin]
- changes in blood biochemical assay (in words) ([1]; oral daily for 7 weeks): no obvious changes
- apparent stability constant (Kc) for Frax complexation [2]: 997.68 M⁻¹
- cell viability (cells remained viable) (Caco-2 cells; Caco-2, 300 μg/mL): over 85%
- H&E staining of major tissues [3]: no inflammation and no cellular damage

Compound: CC(O)COC[C@H]1O[C@@H]2O[C@H]3[C@H](O)[C@@H](O)[C@@H](O[C@H]4[C@H](O)[C@@H](O)[C@@H](O[C@H]5[C@H](O)[C@@H](O)[C@@H](O[C@H]6[C@H](O)[C@@H](O)[C@@H](O[C@H]7[C@H](O)[C@@H](O)[C@@H](O[C@H]8[C@H](O)[C@@H](O)[C@@H](O[C@H]1[C@H](O)[C@H]2O)O[C@@H]8COCC(C)O)O[C@@H]7COCC(C)O)O[C@@H]6COCC(C)O)O[C@@H]5COCC(C)O)O[C@@H]4COCC(C)O)O[C@@H]3COCC(C)O (stereo partly drawn) [HP-β-CD, 2-hydroxypropyl-β-cyclodextrin]
- apparent stability constant (Kc) for Frax complexation [2]: 807.32 M⁻¹
- viability at 4 h, 300 μg/mL [4]: > 85%

Compound: OC[C@H]1O[C@@H]2O[C@H]3[C@H](O)[C@@H](O)[C@@H](O[C@H]4[C@H](O)[C@@H](O)[C@@H](O[C@H]5[C@H](O)[C@@H](O)[C@@H](O[C@H]6[C@H](O)[C@@H](O)[C@@H](O[C@H]7[C@H](O)[C@@H](O)[C@@H](O[C@H]8[C@H](O)[C@@H](O)[C@@H](O[C@H]1[C@H](O)[C@H]2O)O[C@@H]8CO)O[C@@H]7CO)O[C@@H]6CO)O[C@@H]5CO)O[C@@H]4CO)O[C@@H]3CO [β-CD, β-cyclodextrin]
- apparent stability constant (Kc) for Frax complexation [2]: 109.34 M⁻¹

Compound: Sulfobutyl ether-β-cyclodextrin [SBE-β-CD]
- apparent stability constant (Kc) for Frax complexation [2]: 168.20 M⁻¹
- cell viability (Caco-2 cells; Caco-2, 200 and 300 μg/mL): lower than 80%
